According to patent US9902713B2, “Neuroprotective compounds and use thereof” (BOARD OF REGENTS OF THE UNIVERSITY OF TEXAS SYSTEM, priority 2013, dated 2018):

Assays:
[1] = tested on: hippocampal CA1 Schaffer-collateral pathway; assay: Hippocampal electrophysiology (LTP, PPF) after blast-mediated TBI; assay type: in vivo, mice
Protocol: To test our hypothesis that performance in the Barnes maze was associated with hippocampal function, we investigated synaptic plasticity in the hippocampus. Specifically, we measured both long-term potentiation (LTP) and paired pulse facilitation (PPF) in brain slices derived from mice exposed to blast-injury as a function of treatment with different doses of P7C3-S243 for 9 days, initiated 24 hours after injury, in animals not subjected to behavioral testing. The stimulating electrode activated CA3 Schaeffer collateral axons, and the recording electrode was placed in the stratum radiatum of the CA1 region, where Schaffer collateral axons synapse with dendrites from CA1 pyramidal cells. […] Thus, dose-dependent protective efficacy of P7C3-S243 in behavioral tasks of learning and memory correlated with hippocampal function.
Electrophysiology. Single-housed, naïve 7- to 9-week-old male C57BL/6J mice received intraperitoneal injections of P7C3-S243 (0.3, 3, or 30 mg/kg/day) or vehicle 24 h following a single sham- or blast-Injury. On the tenth day after injury, coronal hippocampal slices (400 μm) were prepared, in accordance with the University of Iowa guidelines. Briefly, hippocampal slices were cut using a Vibratome 1000 Plus (Vibratome, St. Louis, Mo.) in ice-cold slicing buffer (in mM: 127 NaCl, 26 NaHCO3, 1.2 KH2PO4, 1.9 KCl, 1.1 CaCl2, 2 MgSO4, 10 D-Glucose) bubbled with 95% 02 and 5% CO2. Slices were then transferred to a holding chamber containing oxygenated artificial cerebrospinal fluid (ACSF; in mM: 127 NaCl, 26 NaHCO3, 1.2 KH2PO4, 1.9 KCl, 2.2 CaCl2, 1 MgSO4, 10 D-Glucose) for 30 min at 34 C and for another 30 min at 22° C. for recovery, and then transferred to a submersion recording chamber continually perfused with 32° C. oxygenated ACSF (rate: 2 ml/min). Slices were equilibrated for at least 15 min before each recording.
ACSF-filled glass electrodes (resistance <1 MΩ) were positioned in the stratum radiatum of area CA1 for extracellular recording. Synaptic responses were evoked by stimulating Schaffer collaterals with 0.2 ms pulses once every 15 s. […] Experiments with maximal fEPSPs of less than 0.5 mV, with large fiber volleys, or with substantial changes in the fiber volley during recording were rejected. LTP was induced by 12TBS (12 bursts, each of 4 pulses at 100 Hz).
Field EPSPs were recorded (AxoClamp 900A amplifier, Axon Instruments, Foster City, Calif.), filtered at 1 kHz, digitized at 10 kHz (Axon Digidata 1440), and stored for off-line analysis (Clampfit 10). Initial slopes of fEPSPs were expressed as percentages of baseline averages. In summary graphs, each point represents the average of 4 consecutive responses. The time-matched, normalized data were averaged across experiments.

blood-brain barrier = assay: Blood brain barrier permeability assay (Evans blue); assay type: in vivo; conditions: sham-injured mice, 3 days of daily treatment
Text: On the basis of the promising results seen with administration of P7C3-A20 or P7C3-S243 immediately after injury, we sought to determine whether P7C3-S243 could offer protective efficacy when treatment was initiated later. Because TBI can disrupt the blood-brain barrier (BBB), we first examined BBB integrity over time by means of the Evans blue assay. Evans blue is an azo dye with tight affinity for albumin, such that in serum virtually all Evans blue is albumin-bound. Normally, serum albumin cannot cross the BBB. However, when the BBB is compromised, albumin and its bound Evans blue can enter the CNS. The magnitude of Evans blue accumulation in the brain can then be spectrophotometrically determined in order to monitor disruption of the BBB (Uyama et al., 1988; Hawkins and Egleton, 2006). With this technique, we observed significant disruption of the BBB 6 hours after blast-injury, with integrity of the BBB recovering to normal 18 hours later (FIG. 21B).
Blood brain barrier (BBB) permeability assay. […] To quantify the extravasation of albumin-bound EBD in each brain, tissue was weighed and incubated for 30 minutes at room temperature in 50% Tricholoracetic acid (TCA) in PBS at a 3:1 μl/mg ratio. […] Fluorescence was measured using a SpectraMax M2^e (Molecular Devices) in 100 μl of samples plated on a 96-well plate at excitation wavelength of 620 nm and an emission wavelength of 680 nm.

[2] = molecular target: peripheral benzodiazepine receptor (translocator protein, TSPO) (Rattus norvegicus, UniProt P16257); assay: Ligand displacement (Psychoactive Drug Screening Program); assay type: binding

Row | Compound | blast-induced LTP deficit ([1]; 0.3 mg/kg/d from 24 hours after injury) | blast-induced deficits in LTP and PPF ([1]; 0.3 mg/kg/day) | blast-induced PPF deficit, 50 ms inter-pulse interval ([1]; 3 and 30 mg/kg/d) | blast-induced LTP deficit ([1]; 3 and 30 mg/kg/d from 24 hours after injury) | BBB integrity (blood-brain barrier) | IC50 [2] [nM]
1 | COc1cccc(NCC(F)Cn2c3ccc(Br)cc3c3cc(Br)ccc32)n1 (racemic) [P7C3-S243, N-(3-(3,6-dibromo-9H-carbazol-9-yl)-2-fluoropropyl)-6-methoxypyridin-2-amine] | not rescued | had no effect | rescued | rescued | did not compromise BBB integrity | –
2 | COc1cccc(NCC(F)Cn2c3ccc(Br)cc3c3cc(Br)ccc32)n1 (single isomer, unassigned; (-)) [(−)-P7C3-S243, (−)-N-(3-(3,6-dibromo-9H-carbazol-9-yl)-2-fluoropropyl)-6-methoxypyridin-2-amine] | – | – | – | – | – | 350
